Results on one compound are retold here after article PMC4974056, “The proposed channel-enzyme transient receptor potential melastatin 2 does not possess ADP ribose hydrolase activity” (eLife, 2016).

“And” between values parts separate entries of the source, which are not always exact repeats. Identical values can stand only once.

One experiment deals with T5L-TRPM2 (Homo sapiens, UniProt O94759, G984L/INS985E/Y985D). In words: Excised inside-out patch-clamp recordings, ADPR-dependent channel activation. It counts as cell-based. The protocol:
Oocytes isolated from anaesthetized Xenopus laevis were digested with collagenase, injected with 10–70 ng cRNA, and stored at 18°C. Recordings were done 2–3 days after injection.
The tip of the patch pipette was filled to ~1 cm height with 140 mM Na-gluconate, 2 mM Mg-gluconate2, 10 mM HEPES (pH 7.4 with NaOH); free [Ca^2+] ~4 μM. The pipette electrode was placed into a 140-mM NaCl-based solution carefully layered on top. Bath solution contained 140 mM Na-gluconate, 2 mM Mg-gluconate2, 10 mM HEPES (pH 7.1 with NaOH), and either 1 mM EGTA (to obtain 'zero' (~8 nM) Ca^2+) or 1 mM Ca-gluconate2 (to obtain 125 μM free Ca^2+) ([Csanády and Törocsik, 2009]). Na-ADPR was used at final concentrations of 0.32, 1, 3.2, 10, 32, 100, or 1000 μM, and the Na^+ salt of ε-ADPR at 100 μM. Macroscopic TRPM2 currents were recorded at 25°C at a membrane potential of −20 mV. Currents were amplified, filtered at 2 kHz (Axopatch 200B), digitized at 10 kHz (Digidata 1322A), and stored to disk (Pclamp9, Molecular Devices, Sunnyvale, CA, USA).
Dose dependence of ADPR-induced current activation, expressed as the ratio of mean macroscopic currents observed in the presence of various test [ADPR] (I) and 32 (or 100) μM ADPR (Imax) in the same patch, was fitted to the Hill equation (I/Imax = [ADPR]^n/(K^n+[ADPR]^n). Dose dependence of ADPR-activation in the presence of 100 μM ε-ADPR was expressed as the ratio of the currents observed in the presence of various test [ADPR] + 100 μM ε-ADPR (I) and 100 μM ADPR alone (Imax) in the same patch, and was fitted to the Hill equation substituting K' = K(1+[ε-ADPR]/KI) instead of K (K and n fixed to their control values). Macroscopic current decay time courses following removal of ADPR or Ca^2+ were fitted by single exponentials using the method of least squares.

For a further experiment, the target named is T1, Chi4S (Homo sapiens, UniProt O94759).
T1 construct: its C-terminal cytosolic NUDT9-homology (NUDT9H) domain; made in house; host or cells: E. coli BL21 (DE3), pJ411 plasmid
In words: Ligand binding assay based on quenching of ε-ADPR fluorescence. The following applies: 100 μM Chi4S, 20 mM Tris pH 8.5/100 mM NaCl, 16 mM MgCl2; assuming negligible fluorescence of bound analog; read-out: Kd (upper estimate). The protocol: The ligand binding ability of purified Chi4S protein was assessed using fluorescence quenching of the ADPR analogue 1, N^6-ethenoadenosine-5’-O-diphosphoribose (ε-ADPR - BIOLOG Life Science Institute, Bremen, Germany). A 350-μl volume of 100 μM Chi4S protein in 20 mM Tris (pH 8.5)/100 mM NaCl buffer, supplemented with 16 mM MgCl2, was titrated by increasing concentrations of ε-ADPR. Fluorescence emission scans (350–700 nm) were recorded at a fixed excitation wavelength of 310 nm (Hitachi F-7000, Hitachi High Technologies, Maidenhead, UK). Fluorescence emission for ε-ADPR peaks at ~410 nm. Protein-free buffer or 100 μM bovine serum albumin (BSA; instead of Chi4S) were used as controls. Data are shown as mean ± S.D. of two independent experiments.
Dose dependence of fluorescence (Em = 420 nm) of free ε-ADPR (in buffer) was fitted by an empirical non-linear function to produce a smooth calibration curve, used to obtain upper estimates of free [ε-ADPR] in the presence of 100 μM Chi4S protein and various total [ε-ADPR], assuming negligible fluorescence for the bound, relative to the free, form of the analog. The plot of free vs. total [ε-ADPR] was fitted by the simple binding equation [ε-ADPR]free=0.5([ε-ADPR]total−[P]total−Kd+([ε-ADPR]total−[P]total−Kd)^2+4Kd[ε-ADPR]total),
where [P]total is the total concentration of Chi4S protein (100 μM), and Kd is a free parameter. […]

T1 sequence (O94759 with tags, fused parts or gaps limits assumed): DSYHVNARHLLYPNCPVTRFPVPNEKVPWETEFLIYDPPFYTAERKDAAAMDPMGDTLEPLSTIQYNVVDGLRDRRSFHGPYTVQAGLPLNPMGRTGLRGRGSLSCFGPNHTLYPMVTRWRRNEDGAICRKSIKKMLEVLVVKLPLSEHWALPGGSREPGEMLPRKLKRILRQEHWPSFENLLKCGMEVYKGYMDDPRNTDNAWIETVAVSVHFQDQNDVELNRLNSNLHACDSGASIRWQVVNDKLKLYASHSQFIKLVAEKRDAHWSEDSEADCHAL
T5L-TRPM2, sequence (O94759 whole entry, stated change not applied): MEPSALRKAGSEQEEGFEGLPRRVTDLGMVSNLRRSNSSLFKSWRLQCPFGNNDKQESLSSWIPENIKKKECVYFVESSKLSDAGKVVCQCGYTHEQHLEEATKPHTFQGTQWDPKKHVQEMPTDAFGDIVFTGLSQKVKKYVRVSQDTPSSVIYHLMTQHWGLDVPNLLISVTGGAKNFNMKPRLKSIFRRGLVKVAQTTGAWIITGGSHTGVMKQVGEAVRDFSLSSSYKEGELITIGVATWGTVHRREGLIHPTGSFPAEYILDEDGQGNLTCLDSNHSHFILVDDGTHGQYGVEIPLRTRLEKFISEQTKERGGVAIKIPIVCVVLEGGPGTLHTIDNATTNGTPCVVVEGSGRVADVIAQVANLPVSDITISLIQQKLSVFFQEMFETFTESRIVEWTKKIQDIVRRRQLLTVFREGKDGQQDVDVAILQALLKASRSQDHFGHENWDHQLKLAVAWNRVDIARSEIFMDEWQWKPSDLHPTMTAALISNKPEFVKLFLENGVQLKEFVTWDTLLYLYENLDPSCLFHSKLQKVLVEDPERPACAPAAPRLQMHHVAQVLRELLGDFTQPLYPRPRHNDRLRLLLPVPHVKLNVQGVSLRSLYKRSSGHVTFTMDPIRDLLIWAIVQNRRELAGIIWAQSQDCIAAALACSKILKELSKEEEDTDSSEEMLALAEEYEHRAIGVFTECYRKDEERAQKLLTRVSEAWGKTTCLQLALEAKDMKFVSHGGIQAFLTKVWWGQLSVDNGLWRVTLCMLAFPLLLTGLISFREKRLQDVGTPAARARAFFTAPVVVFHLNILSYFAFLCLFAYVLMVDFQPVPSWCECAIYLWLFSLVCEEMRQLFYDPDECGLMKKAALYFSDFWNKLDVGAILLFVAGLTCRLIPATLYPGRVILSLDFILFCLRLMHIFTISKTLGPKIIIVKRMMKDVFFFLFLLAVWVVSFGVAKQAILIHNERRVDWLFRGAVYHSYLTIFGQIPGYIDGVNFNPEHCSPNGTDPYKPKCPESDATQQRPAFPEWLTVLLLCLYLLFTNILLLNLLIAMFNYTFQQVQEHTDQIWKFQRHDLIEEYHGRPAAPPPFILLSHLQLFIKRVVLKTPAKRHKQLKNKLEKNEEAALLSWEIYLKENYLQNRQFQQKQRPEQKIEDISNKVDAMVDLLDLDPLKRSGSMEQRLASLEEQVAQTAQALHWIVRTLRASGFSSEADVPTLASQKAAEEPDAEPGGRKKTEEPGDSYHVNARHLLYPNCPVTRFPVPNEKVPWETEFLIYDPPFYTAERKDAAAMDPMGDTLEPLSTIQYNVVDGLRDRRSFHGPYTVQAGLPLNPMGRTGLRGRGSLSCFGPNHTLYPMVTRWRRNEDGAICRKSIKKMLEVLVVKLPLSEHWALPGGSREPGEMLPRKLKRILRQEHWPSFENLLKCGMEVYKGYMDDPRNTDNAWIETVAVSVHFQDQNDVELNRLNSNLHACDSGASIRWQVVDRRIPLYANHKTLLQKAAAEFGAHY

A word on the Ki: it is the dissociation constant of the complex between target and ligand, obtained from inhibition or displacement. As a reminder, the Kd is the free concentration of one partner at which half of the binding sites on the other are occupied at equilibrium, for simple one-to-one binding. In the case of `O=P(O)(OC[C@H]1OC(O)[C@H](O)[C@@H]1O)OP(=O)(O)OC[C@H]1O[C@@H](n2cnc3c2ncn2ccnc32)[C@H](O)[C@@H]1O` (stereo partly drawn) [ε-ADPR, 1, N^6-ethenoadenosine-5’-O-diphosphoribose], the “effect on ADPR-evoked TRPM2 currents” value at T5L-TRPM2 (inside-out patch, 1 or 100 μM ADPR) is recorded as “suppressed ADPR-evoked TRPM2 currents in a dose-dependent manner”. Further, on T5L-TRPM2 (right-shift of ADPR dose response in the presence of 100 μM ε-ADPR, competitive fit, read-out: KI (Kε-ADPR) for binding to native NUDT9H), the inhibition constant (Ki) stood at 112 ± 24 µM. Further, the Kd on Chi4S was 111 µM and ≤ 111 µM.
